In patent publication US20120083476A1, “HETEROARYL-SUBSTITUTED SPIROCYCLIC DIAMINE UREA MODULATORS OF FATTY ACID AMIDE HYDROLASE” (Janssen Pharmaceutica NV, priority 2009, published 2012) one finds IC50 data, which are given here for 24 molecules.

As a reminder, the pIC50 is the IC50 on a negative log10 scale, so that one unit is a factor of ten.

The target of one experiment is T1, Rat FAAH (Rattus norvegicus, UniProt P97612).
T1 construct: expressed in transfected cells; host or cells: SK-N-MC cells stably transfected with rat FAAH cDNA (G418 selection)
T1 sequence (P97612 1-579): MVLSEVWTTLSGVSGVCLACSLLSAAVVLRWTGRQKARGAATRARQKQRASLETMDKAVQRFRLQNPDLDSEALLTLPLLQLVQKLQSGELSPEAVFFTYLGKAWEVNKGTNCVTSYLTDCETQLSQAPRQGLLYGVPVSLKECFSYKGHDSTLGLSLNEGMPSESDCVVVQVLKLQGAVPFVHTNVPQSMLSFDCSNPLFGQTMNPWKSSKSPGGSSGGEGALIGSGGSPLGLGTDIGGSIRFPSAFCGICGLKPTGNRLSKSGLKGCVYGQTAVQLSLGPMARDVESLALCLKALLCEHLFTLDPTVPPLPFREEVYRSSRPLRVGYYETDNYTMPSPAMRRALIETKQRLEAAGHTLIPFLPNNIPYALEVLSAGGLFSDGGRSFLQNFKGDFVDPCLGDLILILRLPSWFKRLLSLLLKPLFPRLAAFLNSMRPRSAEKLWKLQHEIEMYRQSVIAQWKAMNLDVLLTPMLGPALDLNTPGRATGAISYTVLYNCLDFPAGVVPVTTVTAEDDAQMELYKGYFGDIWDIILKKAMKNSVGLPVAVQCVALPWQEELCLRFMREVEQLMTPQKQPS
The experiment in a line: Assay Method 2: rat FAAH assay (3H-anandamide hydrolysis in cell homogenate). The format is biochemical. As to conditions: read-out: Assay 2 IC50. In a few lines: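 Homogenates of T84 cells or SK-N-MC cells stably transfected with rat FAAH, in pH 9 Tris/EDTA/glycerol/Triton buffer, incubated 1 h at room temperature with 3H-anandamide. Released labeled ethanolamine separated from substrate on activated charcoal and counted by scintillation; values averaged over runs.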

In a further experiment the target is T2, FAAH (Homo sapiens, UniProt O00519).
T2 sequence (O00519 1-579): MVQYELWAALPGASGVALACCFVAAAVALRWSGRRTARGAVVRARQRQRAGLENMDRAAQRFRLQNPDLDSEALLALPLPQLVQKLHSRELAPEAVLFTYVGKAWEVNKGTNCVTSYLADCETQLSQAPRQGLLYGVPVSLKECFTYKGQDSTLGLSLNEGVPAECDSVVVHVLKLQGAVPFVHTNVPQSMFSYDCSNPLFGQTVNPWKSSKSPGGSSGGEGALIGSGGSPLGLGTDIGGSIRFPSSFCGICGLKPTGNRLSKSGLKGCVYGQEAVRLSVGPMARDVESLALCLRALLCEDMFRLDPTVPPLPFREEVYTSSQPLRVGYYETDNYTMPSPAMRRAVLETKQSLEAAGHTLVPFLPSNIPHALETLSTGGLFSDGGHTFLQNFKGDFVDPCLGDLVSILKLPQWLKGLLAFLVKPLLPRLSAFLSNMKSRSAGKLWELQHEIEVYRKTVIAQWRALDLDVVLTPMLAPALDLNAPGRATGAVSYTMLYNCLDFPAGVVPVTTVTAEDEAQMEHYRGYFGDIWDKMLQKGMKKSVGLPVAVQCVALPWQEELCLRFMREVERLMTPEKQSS
The experiment in a line: Assay Method 1: human FAAH assay (3H-anandamide hydrolysis in cell homogenate). The format is biochemical. Also noted: expressed in transfected cells; host or cells: SK-N-MC cells stably transfected with human FAAH cDNA (G418 selection); alternatively T84 cell pellets. Put shortly: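 Homogenates of T84 cells or SK-N-MC cells stably transfected with human FAAH, in pH 9 Tris/EDTA buffer with 0.02% Triton X-100. Incubated 1 h at rt with compound and 80 nM (final) [3H-ethanolamine]-anandamide. Released 3H-ethanolamine separated on charcoal filters and counted by scintillation.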

pIC50: −log10 of the molar value. Like-named read-outs stand apart in the source and are kept apart here. Bounds are passed on as bounds.

Turning to `O=C(Nc1cnc2[nH]ccc2c1)N1CCC2(CCCN2Cc2cccc(Oc3ccc(Cl)cc3)c2)CC1` [Example 95, 1-[3-(4-Chloro-phenoxy)-benzyl]-1,8-diaza-spiro[4.5]decane-8-carboxylic acid (1H-pyrrolo[2,3-b]pyridin-5-yl)-amide], the figures for the negative logarithm of the IC50 (pIC50) at Rat FAAH and at FAAH (read-out: Assay 1 IC50) were 6.40 and 6.11, respectively.

For the molecule `O=C(Nc1cccnc1)N1CC2(CCCN(Cc3cccc(Oc4ccc(Cl)cc4)c3)C2)C1` [Example 96, 6-[3-(4-Chloro-phenoxy)-benzyl]-2,6-diaza-spiro[3.5]nonane-2-carboxylic acid pyridin-3-ylamide], the values for the pIC50 on Rat FAAH and against FAAH were 5.22 and 5.10, respectively.

Turning to `O=C(Nc1cccnc1)N1CC2(CCN(Cc3ccccc3)CC2)C1` [Example 97, 7-Benzyl-2,7-diaza-spiro[3.5]nonane-2-carboxylic acid pyridin-3-ylamide], the pIC50 on Rat FAAH and on FAAH (read-out: Assay 1 IC50) was less than 5.00 throughout.

With `O=C(Nc1cccnc1)N1CC2(CCN(Cc3ccc(Cl)cc3)CC2)C1` [Example 100, 7-(4-Chloro-benzyl)-2,7-diaza-spiro[3.5]nonane-2-carboxylic acid pyridin-3-ylamide], the pIC50 on Rat FAAH is less than 5.00; on FAAH (read-out: Assay 1 IC50), 5.10.

On to `O=C(Nc1cccnc1)N1CC2(CCN(Cc3ccc(Cl)c(Cl)c3)CC2)C1` [Example 101, 7-(3,4-dichlorobenzyl)-N-(pyridin-3-yl)-2,7-diazaspiro[3.5]nonane-2-carboxamide], for which the negative logarithm of the IC50 (pIC50) on Rat FAAH was less than 5.00; at FAAH (read-out: Assay 1 IC50), 5.22.

With `O=C(Nc1cccnc1)N1CC2(CCN(Cc3ccc(OC(F)(F)F)cc3)CC2)C1` [Example 103, N-(pyridin-3-yl)-7-(4-(trifluoromethoxy)benzyl)-2,7-diazaspiro[3.5]nonane-2-carboxamide], the pIC50 on Rat FAAH is less than 5.00; on FAAH (read-out: Assay 1 IC50) it was 5.89.

As for `O=C(Nc1cccnc1)N1CC2(CCN(Cc3ccc4ccccc4c3)CC2)C1` [Example 104, 7-(naphthalen-2-ylmethyl)-N-(pyridin-3-yl)-2,7-diazaspiro[3.5]nonane-2-carboxamide], the negative logarithm of the IC50 (pIC50) on Rat FAAH was less than 5.00; at FAAH (read-out: Assay 1 IC50), 5.60.

`O=C(Nc1cccnc1)N1CC2(CCN(Cc3cccc(C#Cc4ccccc4)c3)CC2)C1` [Example 105, 7-(3-(phenylethynyl)benzyl)-N-(pyridin-3-yl)-2,7-diazaspiro[3.5]nonane-2-carboxamide]: the pIC50 was 5.10 at Rat FAAH and 6.43 on FAAH (read-out: Assay 1 IC50).

In the case of `CS(=O)(=O)c1ccc(CN2CCC3(CC2)CN(C(=O)Nc2cccnc2)C3)cc1` [Example 106, 7-(4-(methylsulfonyl)benzyl)-N-(pyridin-3-yl)-2,7-diazaspiro[3.5]nonane-2-carboxamide], the pIC50 on Rat FAAH and at FAAH (read-out: Assay 1 IC50) was less than 5.00 each time.

Turning to `O=C(Nc1cccnc1)N1CC2(CCN(Cc3ccccc3O)CC2)C1` [Example 107, 7-(2-hydroxybenzyl)-N-(pyridin-3-yl)-2,7-diazaspiro[3.5]nonane-2-carboxamide], the negative-log IC50 (pIC50) on Rat FAAH and at FAAH (read-out: Assay 1 IC50) was less than 5.00 in each case.

As to `O=C(Nc1cccnc1)N1CC2(CCN(Cc3ccc4ccccc4c3O)CC2)C1` [Example 108, 7-((1-hydroxynaphthalen-2-yl)methyl)-N-(pyridin-3-yl)-2,7-diazaspiro[3.5]nonane-2-carboxamide], the negative logarithm of the IC50 (pIC50) on Rat FAAH was less than 5.00; on FAAH (read-out: Assay 1 IC50), 5.10.

As to `O=C(Nc1cccnc1)N1CC2(CCN(Cc3ccc(Cl)c(OC(F)(F)F)c3)CC2)C1` [Example 110, 7-(4-chloro-3-(trifluoromethoxy)benzyl)-N-(pyridin-3-yl)-2,7-diazaspiro[3.5]nonane-2-carboxamide], the pIC50 on Rat FAAH was 5.22; on FAAH (read-out: Assay 1 IC50) it was 5.89.

For `O=C(Nc1cccnc1)N1CC2(CCN(Cc3ccc(OC(F)(F)F)c(Cl)c3)CC2)C1` [Example 111, 7-(3-chloro-4-(trifluoromethoxy)benzyl)-N-(pyridin-3-yl)-2,7-diazaspiro[3.5]nonane-2-carboxamide], the negative-log IC50 (pIC50) on Rat FAAH is less than 5.00; at FAAH (read-out: Assay 1 IC50), 5.93.

For `O=C(Nc1cccnc1)N1CC2(CCN(Cc3cccc(Oc4cccc(Cl)c4)c3)CC2)C1` [Example 112, 7-(3-(3-chlorophenoxy)benzyl)-N-(pyridin-3-yl)-2,7-diazaspiro[3.5]nonane-2-carboxamide], the figures for the negative logarithm of the IC50 (pIC50) at Rat FAAH and at FAAH (read-out: Assay 1 IC50) were 6.08 and 7.22, respectively.

For `O=C(Nc1cccnc1)N1CC2(CCN(Cc3cccc(Oc4ccc(F)c(C(F)(F)F)c4)c3)CC2)C1` [Example 113, 7-(3-(4-fluoro-3-(trifluoromethyl)phenoxy)benzyl)-N-(pyridin-3-yl)-2,7-diazaspiro[3.5]nonane-2-carboxamide], the values for the pIC50 at Rat FAAH and at FAAH (read-out: Assay 1 IC50) were 5.30 and 6.25, respectively.

`O=C(Nc1cccnc1)N1CC2(CCN(Cc3cccc(Oc4cccc(C(F)(F)F)c4)c3)CC2)C1` [Example 114, N-(pyridin-3-yl)-7-(3-(3-(trifluoromethyl)phenoxy)benzyl)-2,7-diazaspiro[3.5]nonane-2-carboxamide]: the negative-log IC50 (pIC50) on Rat FAAH is 5.40; at FAAH (read-out: Assay 1 IC50), 6.10.

As for `O=C(Nc1cccnc1)N1CC2(CCN(Cc3cccc(Oc4cccc(OC(F)(F)F)c4)c3)CC2)C1` [Example 115, N-(pyridin-3-yl)-7-(3-(3-(trifluoromethoxy)phenoxy)benzyl)-2,7-diazaspiro[3.5]nonane-2-carboxamide], the pIC50 on Rat FAAH is 5.10; on FAAH (read-out: Assay 1 IC50) it was 6.12.

With `N#Cc1cccc(Oc2cccc(CN3CCC4(CC3)CN(C(=O)Nc3cccnc3)C4)c2)c1` [Example 116, 7-(3-(3-cyanophenoxy)benzyl)-N-(pyridin-3-yl)-2,7-diazaspiro[3.5]nonane-2-carboxamide], the pIC50 on Rat FAAH is 5.15; on FAAH (read-out: Assay 1 IC50) it was 7.15.

Consider `O=C(Nc1cccnc1)N1CC2(CCN(Cc3cccc(Oc4cccc(SC(F)(F)F)c4)c3)CC2)C1` [Example 117, N-(pyridin-3-yl)-7-(3-(3-(trifluoromethylthio)phenoxy)benzyl)-2,7-diazaspiro[3.5]nonane-2-carboxamide], for which the negative logarithm of the IC50 (pIC50) on Rat FAAH and on FAAH (read-out: Assay 1 IC50) was 5.52 each time.

Regarding `O=C(Nc1cccnc1)N1CC2(CCN(Cc3cccc(Oc4ccc5c(c4)OC(F)(F)O5)c3)CC2)C1` [Example 118, 7-[3-(2,2-Difluoro-benzo[1,3]-dioxol-5-yloxy)-benzyl]-2,7-diaza-spiro[3.5]nonane-2-carboxylic acid pyridin-3-ylamide], the negative logarithm of the IC50 (pIC50) at Rat FAAH is 6.22; at FAAH (read-out: Assay 1 IC50) it was 6.80.

As for `O=C(Nc1cccnc1)N1CC2(CCN(Cc3cccc(Oc4ccccc4)c3)CC2)C1` [Example 119, 7-(3-Phenoxy-benzyl)-2,7-diaza-spiro[3.5]nonane-2-carboxylic acid pyridin-3-ylamide], the pIC50 was 5.40 on Rat FAAH and 7.00 at FAAH (read-out: Assay 1 IC50).

In the case of `O=C(Nc1cccnc1)N1CC2(CCN(Cc3cccc(Oc4ccccc4Cl)c3)CC2)C1` [Example 121, 7-[3-(2-Chloro-phenoxy)-benzyl]-2,7-diaza-spiro[3.5]nonane-2-carboxylic acid pyridin-3-ylamide], the figures for the pIC50 on Rat FAAH and at FAAH (read-out: Assay 1 IC50) were 5.92 and 7.52, respectively.

In the case of `O=C(Nc1cccnc1)N1CC2(CCN(Cc3cccc(Oc4cccc(Br)c4)c3)CC2)C1` [Example 122, 7-[3-(3-Bromo-phenoxy)-benzyl]-2,7-diaza-spiro[3.5]nonane-2-carboxylic acid pyridin-3-ylamide], the negative-log IC50 (pIC50) is 6.00 at Rat FAAH and 7.30 at FAAH (read-out: Assay 1 IC50).

In the case of `O=C(Nc1cccnc1)N1CC2(CCN(Cc3cccc(Oc4ccc(Br)cc4)c3)CC2)C1` [Example 123, 7-[3-(4-Bromo-phenoxy)-benzyl]-2,7-diaza-spiro[3.5]nonane-2-carboxylic acid pyridin-3-ylamide], the pIC50 is 7.52 at Rat FAAH and 6.70 on FAAH (read-out: Assay 1 IC50).
